Consider four sequences from patent US6958151B2 (priority 2002, dated 2005).

One series relates to POW virus. More on the design: species or system NIH Swiss mice. The following applies: mouse, in vivo.
For series [1] the following is noted: iv via tail vein, five consecutive days, 16.7 μg/day, 10-day observation.
A further series deals with WN-E-D3 (West Nile virus, UniProt Q9Q6P4). It is filed as binding.

Regarding RCCHPQCKEGKKCR (SEQ ID NO:157) [MP-100], in the series with POW virus, the chance for survival result is on record as “increases their chance for survival” and the “onset of disease / illness” value was “delay in onset of disease”. In addition, the toxicity to mice result in series [1] is recorded as “neither of the agents is toxic”.

For the sequence RCCREPCKEGRKCR [MP-106], the “selected by binding (phage display)” value in the series with WN-E-D3 is reported as “selected by binding to WN-E-D3”. Consider RCCTLRCKEGKKCR [MP-108], for which the “selected by binding (phage display)” value with WN-E-D3 is reported as “selected by binding to WN-E-D3”. The same measure, in the same setting: then RCCVSVCKEGKKCR [MP-107], with “selected by binding to WN-E-D3”.
